Source: patent US20230365546A1, “5-SUBSTITUTED INDOLE 3-AMIDE DERIVATIVES, PREPARATION METHOD AND USE THEREOF” (ORIGIANT PHARMACEUTICAL CO., LTD, priority 2020, published 2023)
Values joined by “and” are separate entries in the source; they are usually repeats but may differ in a detail not shown here. Equal entries are not always repeated.

Experiments:
Assay in all cases: Kinase Profiler 10 μM panel
FGFR1(V561M)(h) = FGFR1(V561M)(h) (Homo sapiens (Human), UniProt P11362, V561M)
Description: (§1) In vitro kinase assays were conducted using Kinase Profiler services provided by Eurofins. The experimental method was as follows: the small molecule compound to be tested (0.001-10 μM), the protein kinase to be tested were incubated with a buffer containing substrate, 10 mM magnesium acetate, and [γ-^33P-ATP], the reaction was started by adding Mg\TPmix, after incubation for a period of time at room temperature, a 3% phosphate solution was added to the buffer to stop the reaction. Subsequently, 10 μL of the reaction mixture was quantitatively pipetted onto P30 filter paper, which was washed three times with 75 mM phosphate solution and then once with methanol. The P30 filter paper was air-dried and scintillation fluid was added for scintillation counting.

PASK(h) = PASK(h) (Homo sapiens (Human), UniProt Q96RG2)
Description: as §1

CK1γ2(h) = CK1γ2(h) (Homo sapiens (Human), UniProt P78368)
Description: as §1

BMPR2(h) = BMPR2(h) (Homo sapiens (Human), UniProt Q13873)
Description: as §1

Pyk2(h) = Pyk2(h) (Homo sapiens (Human), UniProt Q14289)
Description: as §1

CDKL3(h) = CDKL3(h) (Homo sapiens (Human), UniProt Q8IVW4)
Description: as §1

Abl(h) = Abl(h) (Homo sapiens (Human), UniProt P00519)
Description: as §1

PKG1α(h) = PKG1α(h) (Homo sapiens (Human), UniProt Q13976)
Description: as §1

ULK2(h) = ULK2(h) (Homo sapiens (Human), UniProt Q8IYT8)
Description: as §1

SLK(h) = SLK(h) (Homo sapiens (Human), UniProt Q9H2G2)
Description: as §1

DMPK(h) = DMPK(h) (Homo sapiens (Human), UniProt Q09013)
Description: as §1

CDK17/cyclinY(h) = CDK17/cyclinY(h) (Homo sapiens (Human), UniProt Q00537)
Description: as §1

Ron(h) = Ron(h) (Homo sapiens (Human), UniProt Q04912)
Description: as §1

CDK1/cyclinB(h) = CDK1/cyclinB(h) (Homo sapiens (Human), UniProt P06493)
Description: as §1

IRAK4(h) = IRAK4(h) (Homo sapiens (Human), UniProt Q9NWZ3)
Description: as §1

Snk(h) = Snk(h) (Homo sapiens (Human), UniProt Q9NYY3)
Description: as §1

CDK2/cyclinA(h) = CDK2/cyclinA(h) (Homo sapiens (Human), UniProt P24941)
Description: as §1

DYRK2(h) = DYRK2(h) (Homo sapiens (Human), UniProt Q92630)
Description: as §1

Src(T341M)(h) = Src(T341M)(h) (Homo sapiens (Human), UniProt P12931, T341M)
Description: as §1

NDR2(h) = NDR2(h) (Homo sapiens (Human), UniProt Q9Y2H1)
Description: as §1

SAPK2b(h) = SAPK2b(h) (Homo sapiens (Human), UniProt Q15759)
Description: as §1

HIPK1(h) = HIPK1(h) (Homo sapiens (Human), UniProt Q86Z02)
Description: as §1

ErbB2(h) = ErbB2(h) (Homo sapiens (Human), UniProt P04626)
Description: as §1

MYO3B(h) = MYO3B(h) (Homo sapiens (Human), UniProt Q8WXR4)
Description: as §1

TBK1(h) = TBK1(h) (Homo sapiens (Human), UniProt Q9UHD2)
AMPKα2(h) = AMPKα2(h) (Homo sapiens (Human), UniProt P54646)
Description: as §1

GSK3α(h) = GSK3α(h) (Homo sapiens (Human), UniProt P49840)
Description: as §1

NIM1(h) = NIM1(h) (Homo sapiens (Human), UniProt Q8IY84)
Description: as §1

TSSK4(h) = TSSK4(h) (Homo sapiens (Human), UniProt Q6SA08)
Description: as §1

MEKK2(h) = MEKK2(h) (Homo sapiens (Human), UniProt Q9Y2U5)
Description: as §1

IGF-1R(h) = IGF-1R(h) (Homo sapiens (Human), UniProt P08069)
Description: as §1

[1] = biological target: PI3 Kinase (p110d/p85a)(h) (Homo sapiens (Human), UniProt O00329)
Description: as §1

ACK1(h) = ACK1(h) (Homo sapiens (Human), UniProt Q07912)
Description: as §1

CLIK1(h) = CLIK1(h) (Homo sapiens (Human), UniProt Q8TDR2)
Description: The experimental method was as follows: the small molecule compound to be tested (0.001-10 μM), the protein kinase to be tested were incubated with a buffer containing substrate, 10 mM magnesium acetate, and [γ-^33P-ATP], the reaction was started by adding Mg\TPmix, after incubation for a period of time at room temperature, a 3% phosphate solution was added to the buffer to stop the reaction. Subsequently, 10 μL of the reaction mixture was quantitatively pipetted onto P30 filter paper, which was washed three times with 75 mM phosphate solution and then once with methanol. The P30 filter paper was air-dried and scintillation fluid was added for scintillation counting.

FGFR1(V561M)(h), sequence (P11362 22-822 V561M): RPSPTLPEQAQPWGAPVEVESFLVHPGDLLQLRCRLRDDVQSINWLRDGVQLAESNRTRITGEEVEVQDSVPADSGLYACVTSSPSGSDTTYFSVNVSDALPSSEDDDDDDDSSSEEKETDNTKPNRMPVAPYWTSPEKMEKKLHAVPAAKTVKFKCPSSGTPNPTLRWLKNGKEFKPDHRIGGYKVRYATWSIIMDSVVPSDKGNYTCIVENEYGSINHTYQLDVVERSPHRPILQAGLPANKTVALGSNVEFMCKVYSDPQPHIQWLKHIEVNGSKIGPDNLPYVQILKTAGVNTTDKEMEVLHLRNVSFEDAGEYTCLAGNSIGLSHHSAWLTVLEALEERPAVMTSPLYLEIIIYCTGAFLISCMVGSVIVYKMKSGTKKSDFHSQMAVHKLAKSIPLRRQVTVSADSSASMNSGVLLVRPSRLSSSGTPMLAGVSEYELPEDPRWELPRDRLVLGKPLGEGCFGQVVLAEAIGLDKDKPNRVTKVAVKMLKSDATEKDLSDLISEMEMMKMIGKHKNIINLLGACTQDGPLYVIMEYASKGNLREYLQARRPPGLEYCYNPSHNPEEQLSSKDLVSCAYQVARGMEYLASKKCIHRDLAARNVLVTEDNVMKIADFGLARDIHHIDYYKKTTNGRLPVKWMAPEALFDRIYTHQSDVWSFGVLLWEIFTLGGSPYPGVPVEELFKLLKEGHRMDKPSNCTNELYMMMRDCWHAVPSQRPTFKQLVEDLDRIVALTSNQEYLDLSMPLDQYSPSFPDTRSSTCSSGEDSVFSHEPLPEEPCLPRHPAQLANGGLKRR
PKG1α(h), sequence (Q13976 whole entry): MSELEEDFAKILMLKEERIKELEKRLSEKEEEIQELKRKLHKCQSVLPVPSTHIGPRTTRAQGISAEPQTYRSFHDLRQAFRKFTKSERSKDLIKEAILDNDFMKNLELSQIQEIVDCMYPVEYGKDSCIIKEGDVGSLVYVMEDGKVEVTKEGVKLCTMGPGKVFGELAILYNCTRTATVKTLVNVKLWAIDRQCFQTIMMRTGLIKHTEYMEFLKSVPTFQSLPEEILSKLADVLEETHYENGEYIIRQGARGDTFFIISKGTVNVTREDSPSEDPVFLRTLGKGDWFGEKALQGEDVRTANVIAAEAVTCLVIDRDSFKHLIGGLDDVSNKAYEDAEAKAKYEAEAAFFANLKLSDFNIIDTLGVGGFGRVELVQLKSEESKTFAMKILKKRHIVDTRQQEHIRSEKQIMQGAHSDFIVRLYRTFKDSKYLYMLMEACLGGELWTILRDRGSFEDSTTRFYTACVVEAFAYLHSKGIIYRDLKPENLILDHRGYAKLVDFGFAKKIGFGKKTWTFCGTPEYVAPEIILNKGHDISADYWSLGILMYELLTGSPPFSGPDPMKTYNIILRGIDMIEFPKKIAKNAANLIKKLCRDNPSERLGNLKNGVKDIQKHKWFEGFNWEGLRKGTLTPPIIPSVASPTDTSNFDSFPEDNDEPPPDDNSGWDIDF
Src(T341M)(h), sequence (P12931 whole entry T341M, looked up): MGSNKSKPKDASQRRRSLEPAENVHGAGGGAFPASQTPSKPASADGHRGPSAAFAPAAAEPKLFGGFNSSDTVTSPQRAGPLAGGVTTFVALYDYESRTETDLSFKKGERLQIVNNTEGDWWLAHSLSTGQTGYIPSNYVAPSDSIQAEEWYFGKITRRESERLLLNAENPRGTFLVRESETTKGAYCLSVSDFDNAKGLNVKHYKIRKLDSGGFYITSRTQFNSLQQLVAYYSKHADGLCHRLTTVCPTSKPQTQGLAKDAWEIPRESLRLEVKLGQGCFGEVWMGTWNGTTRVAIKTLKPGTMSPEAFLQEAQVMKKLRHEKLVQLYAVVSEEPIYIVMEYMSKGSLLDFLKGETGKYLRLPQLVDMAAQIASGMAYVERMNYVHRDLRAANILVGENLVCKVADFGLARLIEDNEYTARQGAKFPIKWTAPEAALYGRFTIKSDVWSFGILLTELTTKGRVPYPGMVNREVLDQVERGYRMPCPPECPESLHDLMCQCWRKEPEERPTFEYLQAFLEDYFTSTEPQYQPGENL
DMPK(h), sequence (Q09013 whole entry): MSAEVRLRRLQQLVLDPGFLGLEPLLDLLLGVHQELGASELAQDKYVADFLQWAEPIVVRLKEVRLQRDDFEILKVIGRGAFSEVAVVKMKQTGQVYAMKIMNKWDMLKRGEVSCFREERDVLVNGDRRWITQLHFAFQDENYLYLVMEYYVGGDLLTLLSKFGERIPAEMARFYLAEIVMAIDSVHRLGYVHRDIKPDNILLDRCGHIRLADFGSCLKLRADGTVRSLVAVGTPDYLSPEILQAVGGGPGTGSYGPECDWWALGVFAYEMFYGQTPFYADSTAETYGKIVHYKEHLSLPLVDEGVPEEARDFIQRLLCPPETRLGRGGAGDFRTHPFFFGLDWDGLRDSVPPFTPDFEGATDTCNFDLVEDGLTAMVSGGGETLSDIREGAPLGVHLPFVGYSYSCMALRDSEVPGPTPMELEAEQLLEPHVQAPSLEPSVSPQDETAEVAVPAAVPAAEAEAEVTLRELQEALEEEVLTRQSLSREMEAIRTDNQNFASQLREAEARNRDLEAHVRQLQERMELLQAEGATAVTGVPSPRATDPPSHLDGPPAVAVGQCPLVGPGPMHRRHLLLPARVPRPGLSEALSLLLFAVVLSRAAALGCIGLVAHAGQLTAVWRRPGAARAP
PASK(h), sequence (Q96RG2 whole entry): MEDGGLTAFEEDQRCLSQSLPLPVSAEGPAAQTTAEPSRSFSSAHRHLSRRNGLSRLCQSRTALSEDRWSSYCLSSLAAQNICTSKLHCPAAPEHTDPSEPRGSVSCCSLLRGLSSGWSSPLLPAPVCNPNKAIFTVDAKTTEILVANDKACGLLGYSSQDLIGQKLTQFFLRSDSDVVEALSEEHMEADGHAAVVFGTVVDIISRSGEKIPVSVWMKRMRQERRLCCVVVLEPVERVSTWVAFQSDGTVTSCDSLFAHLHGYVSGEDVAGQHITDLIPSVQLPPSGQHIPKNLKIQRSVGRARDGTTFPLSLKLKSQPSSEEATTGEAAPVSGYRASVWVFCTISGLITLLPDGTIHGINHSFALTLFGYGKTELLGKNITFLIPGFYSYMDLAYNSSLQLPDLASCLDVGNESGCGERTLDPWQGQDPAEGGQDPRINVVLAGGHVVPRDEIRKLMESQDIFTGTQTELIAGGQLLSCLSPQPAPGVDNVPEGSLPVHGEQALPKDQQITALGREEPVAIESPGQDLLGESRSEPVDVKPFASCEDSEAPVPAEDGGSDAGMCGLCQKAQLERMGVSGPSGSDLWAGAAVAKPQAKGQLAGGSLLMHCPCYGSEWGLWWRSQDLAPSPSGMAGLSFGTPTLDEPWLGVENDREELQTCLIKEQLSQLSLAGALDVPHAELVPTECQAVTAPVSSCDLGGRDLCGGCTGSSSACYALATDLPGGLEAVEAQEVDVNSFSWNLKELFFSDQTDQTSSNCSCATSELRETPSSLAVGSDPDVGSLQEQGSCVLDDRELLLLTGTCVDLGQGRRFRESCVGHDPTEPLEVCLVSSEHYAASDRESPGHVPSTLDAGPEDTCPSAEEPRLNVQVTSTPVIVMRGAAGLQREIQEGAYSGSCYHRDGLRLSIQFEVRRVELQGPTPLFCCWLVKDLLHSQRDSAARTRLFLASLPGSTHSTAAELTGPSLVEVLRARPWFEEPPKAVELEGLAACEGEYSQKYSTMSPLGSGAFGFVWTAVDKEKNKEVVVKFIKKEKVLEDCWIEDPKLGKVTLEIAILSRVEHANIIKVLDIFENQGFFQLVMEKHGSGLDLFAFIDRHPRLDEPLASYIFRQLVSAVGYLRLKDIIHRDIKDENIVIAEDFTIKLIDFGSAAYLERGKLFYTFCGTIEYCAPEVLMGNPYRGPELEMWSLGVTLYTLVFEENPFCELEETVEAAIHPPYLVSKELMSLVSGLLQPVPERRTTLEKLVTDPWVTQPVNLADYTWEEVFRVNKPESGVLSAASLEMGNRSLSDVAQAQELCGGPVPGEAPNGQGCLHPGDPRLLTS
BMPR2(h), sequence (Q13873 27-1038): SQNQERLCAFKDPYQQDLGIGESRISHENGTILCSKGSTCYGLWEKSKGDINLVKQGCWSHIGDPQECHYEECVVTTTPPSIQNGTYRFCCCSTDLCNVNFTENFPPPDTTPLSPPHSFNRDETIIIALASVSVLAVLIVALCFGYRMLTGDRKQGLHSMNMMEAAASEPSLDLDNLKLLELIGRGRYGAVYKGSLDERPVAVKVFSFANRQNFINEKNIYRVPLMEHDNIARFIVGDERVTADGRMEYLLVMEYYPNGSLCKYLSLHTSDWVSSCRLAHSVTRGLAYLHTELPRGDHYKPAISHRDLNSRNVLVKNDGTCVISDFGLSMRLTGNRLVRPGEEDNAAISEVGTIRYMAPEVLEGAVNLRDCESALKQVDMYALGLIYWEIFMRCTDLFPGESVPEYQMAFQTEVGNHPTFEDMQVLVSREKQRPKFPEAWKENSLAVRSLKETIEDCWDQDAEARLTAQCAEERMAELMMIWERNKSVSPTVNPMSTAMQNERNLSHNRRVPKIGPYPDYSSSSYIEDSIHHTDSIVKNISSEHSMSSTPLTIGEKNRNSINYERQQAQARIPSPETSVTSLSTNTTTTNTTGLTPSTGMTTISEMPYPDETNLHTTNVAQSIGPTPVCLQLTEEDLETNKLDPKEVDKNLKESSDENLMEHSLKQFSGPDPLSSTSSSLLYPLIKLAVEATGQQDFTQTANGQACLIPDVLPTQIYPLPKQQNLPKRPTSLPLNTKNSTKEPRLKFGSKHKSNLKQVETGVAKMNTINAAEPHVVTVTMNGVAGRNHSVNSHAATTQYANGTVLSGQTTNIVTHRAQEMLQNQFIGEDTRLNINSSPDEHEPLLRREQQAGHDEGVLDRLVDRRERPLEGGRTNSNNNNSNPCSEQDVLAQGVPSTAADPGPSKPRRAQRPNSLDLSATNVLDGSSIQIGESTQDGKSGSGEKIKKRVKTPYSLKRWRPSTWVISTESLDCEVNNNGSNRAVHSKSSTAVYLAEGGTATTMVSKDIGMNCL

C[C@H](NC(=O)c1c[nH]c2ccc(-c3ccc4nc(NC(=O)C5CC5)sc4c3)cc12)c1cccc(F)c1 [Compound 34, (S)-5-(2-(cyclopropanecarboxamido)benzo[d]thiazol-6-yl)-N-(1-(3-fluorophenyl)ethyl)-1H-indole-3-carboxamide]
Inhibition ratio (FGFR1(V561M)(h)): 80%
Inhibition ratio (PASK(h)): −25%
Inhibition ratio (CK1γ2(h)): 9%
Inhibition ratio (BMPR2(h)): 30%
Inhibition ratio (Pyk2(h)): 45%
Inhibition ratio (CDKL3(h)): 51%
Inhibition ratio (Abl(h)): 102%
Inhibition ratio (PKG1α(h)): −12%
Inhibition ratio (ULK2(h)): 13%
Inhibition ratio (SLK(h)): 50%
Inhibition ratio (DMPK(h)): 10%
Inhibition ratio (CDK17/cyclinY(h)): −11%
Inhibition ratio (Ron(h)): 44%
Inhibition ratio (CDK1/cyclinB(h)): 13%
Inhibition ratio (IRAK4(h)): 15%
Inhibition ratio (Snk(h)): 0%
Inhibition ratio (CDK2/cyclinA(h)): 11%
Inhibition ratio (DYRK2(h)): 5%
Inhibition ratio (Src(T341M)(h)): 36%
Inhibition ratio (NDR2(h)): 23%
Inhibition ratio (SAPK2b(h)): 12%
Inhibition ratio (HIPK1(h)): 68%
Inhibition ratio (ErbB2(h)): 10%
Inhibition ratio (MYO3B(h)): 16%
Inhibition ratio (TBK1(h)): 53%
Inhibition ratio (AMPKα2(h)): 13%
Inhibition ratio (GSK3α(h)): 10%
Inhibition ratio (NIM1(h)): −19%
Inhibition ratio (TSSK4(h)): 13%
Inhibition ratio (MEKK2(h)): 3%
Inhibition ratio (IGF-1R(h)): 28%
Inhibition ratio [1]: 54%
Inhibition ratio (ACK1(h)): 35%
Inhibition ratio (CLIK1(h)): 22%

C[C@H](NC(=O)c1cn(C)c2ccc(-c3ccn4nc(NC(=O)C5CC5)nc4c3)cc12)c1cccc(F)c1 [Compound 94, (S)-5-(2-(cyclopropanecarboxamido)-[1,2,4]triazolo[1,5-a]pyridin-7-yl)-N-(1-(3-fluorophenyl)ethyl)-1-methyl-1H-indole-3-carboxamide]
Inhibition ratio/% (FGFR1(V561M)(h)): 45% and 30%
Inhibition ratio/% (PASK(h)): 53%
Inhibition ratio/% (CK1γ2(h)): 50%
Inhibition ratio/% (BMPR2(h)): −6%
Inhibition ratio/% (Pyk2(h)): −5%
Inhibition ratio/% (CDKL3(h)): −5%
Inhibition ratio/% (Abl(h)): 32%
Inhibition ratio/% (PKG1α(h)): 12%
Inhibition ratio/% (ULK2(h)): 55%
Inhibition ratio/% (SLK(h)): 15%
Inhibition ratio/% (DMPK(h)): −2%
Inhibition ratio/% (CDK17/cyclinY(h)): 70%
Inhibition ratio/% (Ron(h)): 17%
Inhibition ratio/% (CDK1/cyclinB(h)): 78%
Inhibition ratio/% (IRAK4(h)): −11%
Inhibition ratio/% (Snk(h)): 1%
Inhibition ratio/% (CDK2/cyclinA(h)): 24%
Inhibition ratio/% (DYRK2(h)): 2%
Inhibition ratio/% (Src(T341M)(h)): −6%
Inhibition ratio/% (NDR2(h)): 46%
Inhibition ratio/% (SAPK2b(h)): 36%
Inhibition ratio/% (HIPK1(h)): 48%
Inhibition ratio/% (ErbB2(h)): 47%
Inhibition ratio/% (MYO3B(h)): −18%
Inhibition ratio/% (TBK1(h)): 13%
Inhibition ratio/% (AMPKα2(h)): 16%
Inhibition ratio/% (GSK3α(h)): 48%
Inhibition ratio/% (NIM1(h)): 10%
Inhibition ratio/% (TSSK4(h)): 49%
Inhibition ratio/% (MEKK2(h)): −10%
Inhibition ratio/% (IGF-1R(h)): −4%
Inhibition ratio/% [1]: −1%
Inhibition ratio/% (ACK1(h)): 33%
Inhibition ratio/% (CLIK1(h)): 22%
